Key:
[1] = system: tasters; test: Human tasting of sweet/flavor modifying ingredient in HFCS solution versus HFCS control; assay type: in vivo
Description: For testing the material as a sweet/flavor modifying ingredient, two samples were prepared: a 4° Brix high-fructose corn syrup (HFCS) control solution and a 4° Brix HFCS solution with a known concentration of test ingredient.
4° Brix HFCS control solution was prepared by adding 50.89 grams of 78.60° Brix HFCS to 1000 g phosphoric acid base which was prepared by adding phosphoric acid dropwise into 1 L of Aquafina Water until pH 3.1 was obtained. pH was measured using a METTLER TOLEDO pH meter.
If any cloudiness persisted, the sample solution was passed through a paper filter. For some low soluble compounds, Branson 2800 Ultra Sonic Bath was used to dissolve the material. Solubility was confirmed by shining a laser pointer through the solution. If no diffraction was observed then it was assumed that the material was soluble.
For each test, 12-16 tasters were presented with these two (2) numbered samples and asked to note the sweet quality differences between the two samples. Tasters were also asked to comment on sweetness onset, sweetness linger, overall sugarlike sweetness and other qualities such as bitter taste, metallic note, astringency, cooling sensation, any offnotes and any associated flavors. Tasters were also asked to assess sample odor differences and provide any descriptions.
Tasters were asked to not to eat at least 1 hour before tasting and rinse with Aquafina water at least 5 times between tasting all samples.
Compound 5 was added at 35 ppm to 4 Brix HFCS in phosphoric acid (as described above). This solution was compared with 4 Brix HFCS in phosphoric acid.

[2] = system: human tasting; test: Human tasting of GSA with high potency sweeteners such as rebaudioside A; assay type: in vivo; details: pure form
[3] = 35 ppm in 4 Brix HFCS in phosphoric acid (pH 3.1) vs 4 Brix HFCS control

## COc1cc(C(=O)O)cc(OC)c1O[C@@H]1O[C@H](CO)[C@@H](O)[C@H](O)[C@H]1O [Compound 5, Syringic acid 4-O-β-D-glucoside]
[1]; [3]
  overall sugarlike sweetness reported by tasters: more sugar-like
  sweetness onset reported by tasters: earlier onset
[1]; 35 ppm in 4 Brix HFCS in phosphoric acid (pH 3.1) vs 4 Brix HFCS control, majority of 12-16 tasters noted a difference
  sweet quality difference reported by tasters: rounder sweetness
[1]; pure form, human tasting, nutritive sweetener e.g. high-fructose corn syrup (HFCS)
  overall sweetness of nutritive sweetener sweetened beverages: effective in increasing the overall sweetness
[1]; pure form, human tasting, sweetened beverages
  sweet quality of sweetened beverages: improving the sweet quality
[2]; e.g. 300 ppm solution of Rebaudioside A in phosphate buffer
  bitter, metallic and licorice off-notes of high potency sweeteners: decreasing bitter, metallic and licorice off-notes
[2]; high potency sweeteners such as rebaudioside A
  sweetness time-of-onset for high potency sweeteners: decreasing the sweetness time-of-onset
